From patent US9326513B2, “Fungicidal compositions” (Syngenta Participations AG, priority 2011, dated 2016)

What was measured:
Type in all cases: in vivo
Conditions in all cases: foliar, compared to untreated control leaf disks, read-out: disease control
[1] = test system: Blumeria graminis f. sp. tritici (Erysiphe graminis f. sp. tritici); assay: Blumeria graminis f. sp. tritici / wheat / leaf disc preventative (powdery mildew on wheat)
Method in brief: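 Wheat leaf segments (cv. Kanzler) on agar were sprayed with formulated compound in water, inoculated with powdery mildew 1 day later, and kept at 20° C, 60% rh (24 h dark, then 12 h light/12 h dark). Percent disease control versus untreated scored 6-8 days after application; tested at 200 ppm.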

[2] = test system: Puccinia recondita f. sp. tritici; assay: Puccinia recondita f. sp. tritici / wheat / leaf disc preventative (brown rust)
Text: Puccinia recondita f. sp. tritici/Wheat/Leaf Disc Preventative (Brown Rust) Wheat leaf segments cv. Kanzler were placed on agar in multiwell plates (24-well format) and sprayed with the formulated test compound diluted in water. The leaf disks were inoculated with a spore suspension of the fungus 1 day after application.

[3] = test system: Puccinia recondita f. sp. tritici; assay: Puccinia recondita f. sp. tritici / wheat / leaf disc curative (brown rust)
Protocol: Puccinia recondita f. sp. tritici/Wheat/Leaf Disc Curative (Brown Rust) Wheat leaf segments cv. Kanzler are placed on agar in multiwell plates (24-well format). The leaf segments are inoculated with a spore suspension of the fungus. Plates were stored in darkness at 19° C. and 75% rh. The formulated test compound diluted in water was applied 1 day after inoculation.

[4] = test system: Pyrenophora teres; assay: Pyrenophora teres / barley / leaf disc preventative (net blotch)
Text: Pyrenophora teres/Barley/Leaf Disc Preventative (Net Blotch) Barley leaf segments cv. Hasso were placed on agar in a multiwell plate (24-well format) and sprayed with the formulated test compound diluted in water. The leaf segments were inoculated with a spore suspension of the fungus 2 days after application.

Measured: pest or weed control at 200 ppm

CCN(C)/C=N/c1cc(C2CC2)c(OC(C)c2cc(F)cc(F)c2)nc1C (stereo not drawn) [Q.216]
≥ 50%: [1] | [2] | [3] | [4]

CCN(C)/C=N/c1cc(Br)c(O[C@H]2CC[C@@H](c3ccccc3)CC2)nc1C [Q.269]
≥ 50%: [1] | [2] | [3] | [4]

CCN(C)/C=N/c1cc(Br)c(OC2CCS(=O)(=O)CC2)nc1C [Q.161]
≥ 50%: [1] | [2] | [3] | [4]

C=CC(C)Oc1nc(C)c(/N=C/N(C)CC)cc1Br (stereo not drawn) [Q.394]
≥ 50%: [1] | [2] | [3] | [4]

CCN(C)/C=N/c1cc(Br)c(OC(C)CC(C)C)nc1C (stereo not drawn) [Q.392]
≥ 50%: [1] | [2] | [3] | [4]

CCN(C)/C=N/c1cc(Br)c(OCCCC(C)O)nc1C (stereo not drawn) [Q.035]
≥ 50%: [1] | [2] | [3] | [4]

CCN(C)/C=N/c1cc(Br)c(OC2CCc3cccc(OC)c3C2)nc1C (stereo not drawn) [Q.024]
≥ 50%: [1] | [2] | [3] | [4]

CCN(C)/C=N/c1cc(Br)c(OC(C)Cc2cc(Cl)cc(Cl)c2)nc1C (stereo not drawn) [Q.221]
≥ 50%: [1] | [2] | [3] | [4]

CCCC(C)Oc1nc(C)c(/N=C/N(C)CC)cc1Br (stereo not drawn) [Q.146]
≥ 50%: [1] | [2] | [3] | [4]

CCN(C)/C=N/c1cc(Br)c(OCCC(C)C)nc1C [Q.391]
≥ 50%: [1] | [2] | [3] | [4]

CCN(C)/C=N/c1cc(C2CC2)c(OC2Cc3cc(OC)c(OC)cc3C2)nc1C [Q.069]
≥ 50%: [1] | [2] | [3] | [4]

CCN(C)/C=N/c1cc(Br)c(OCc2ccc(F)c(F)c2)nc1C [Q.206]
≥ 50%: [1] | [2] | [3] | [4]

CCN(C)/C=N/c1cc(C)c(O[C@H]2CC[C@@H](C(C)C)CC2)nc1C [Q.186]
≥ 50%: [1] | [2] | [3] | [4]

CCN(C)/C=N/c1cc(Br)c(OC2Cc3ccc(Br)cc3C2)nc1C (stereo not drawn) [Q.196]
≥ 50%: [1] | [2] | [3] | [4]

CCN(C)/C=N/c1cc(Br)c(OCCCC(O)CCl)nc1C (stereo not drawn) [Q.059]
≥ 50%: [1] | [2] | [3] | [4]

C#Cc1cc(/N=C/N(C)CC)c(C)nc1O[C@H]1CC[C@@H](C(C)C)CC1 [Q.250]
≥ 50%: [1] | [2] | [3] | [4]

CCN(C)/C=N/c1cc(Br)c(OC2CCN(C(=O)C(C)C)CC2)nc1C [Q.162]
≥ 50%: [1] | [2] | [3] | [4]

CCN(C)/C=N/c1ccc(O[C@H]2CC[C@@H](C(C)C)CC2)nc1C [Q.183]
≥ 50%: [1] | [2] | [3] | [4]

CCN(C)/C=N/c1cc(Br)c(OCCCCc2ccc(F)cc2)nc1C [Q.026]
≥ 50%: [1] | [2] | [3] | [4]

CCN(C)/C=N/c1cc(Br)c(OCC#Cc2cccc(OC)c2)nc1C [Q.020]
≥ 50%: [1] | [2] | [3] | [4]

CCN(C)/C=N/c1cc(Br)c(OCC[C@H]2CC[C@@H](O)CC2)nc1C [Q.005]
≥ 50%: [1] | [2] | [3] | [4]

CCN(C)/C=N/c1cc(Br)c(O[C@H]2C[C@@H]3ON=C(C)[C@@H]3C2)nc1C [Q.070]
≥ 50%: [1] | [2] | [3] | [4]

CCN(C)/C=N/c1cc(Br)c(OCc2ccccc2SC)nc1C [Q.335]
≥ 50%: [1] | [2] | [3] | [4]

CCc1cc(/N=C/N(C)CC)c(C)nc1O[C@H]1CC[C@@H](C(C)C)CC1 [Q.251]
≥ 50%: [1] | [2] | [3] | [4]

CCN(C)/C=N/c1cc(Br)c(OC2CCC(Cc3ccccc3)CC2)nc1C (stereo not drawn) [Q.119]
≥ 50%: [1] | [2] | [3] | [4]

CCN(C)/C=N/c1cc(Br)c(OC(C)c2cc(C)cc(C)c2)nc1C (stereo not drawn) [Q.203]
≥ 50%: [1] | [2] | [3] | [4]

CCN(C)/C=N/c1cc(Br)c(OCCc2ccc(C)cc2)nc1C [Q.364]
≥ 50%: [1] | [2] | [3] | [4]

CCN(C)/C=N/c1cc(Br)c(OC2CCC(C)C2)nc1C (stereo not drawn) [Q.167]
≥ 50%: [1] | [2] | [3] | [4]

C=Cc1ccccc1COc1nc(C)c(/N=C/N(C)CC)cc1Br [Q.275]
≥ 50%: [1] | [2] | [3] | [4]

CCN(C)/C=N/c1cc(Br)c(OCC2CC=CCC2)nc1C (stereo not drawn) [Q.029]
≥ 50%: [1] | [2] | [3] | [4]

CCN(C)/C=N/c1cc(Br)c(OCc2cc(OC)cc(OC)c2)nc1C [Q.370]
≥ 50%: [1] | [2] | [3] | [4]

CCN(C)/C=N/c1cc(Br)c(OC(C)Cc2cccc(F)c2)nc1C (stereo not drawn) [Q.218]
≥ 50%: [1] | [2] | [3] | [4]

CCN(C)/C=N/c1cc(Br)c(OCC2CCCc3ccccc32)nc1C (stereo not drawn) [Q.226]
≥ 50%: [1] | [2] | [3] | [4]

CCN(C)/C=N/c1cc(Br)c(OCc2ccc(C)cc2C)nc1C [Q.324]
≥ 50%: [1] | [2] | [3] | [4]

CCN(C)/C=N/c1cc(Br)c(OC(C)CCCc2ccccc2)nc1C (stereo not drawn) [Q.201]
≥ 50%: [1] | [2] | [3] | [4]

CCN(C)/C=N/c1cc(Br)c(OCc2ccccc2S(C)(=O)=O)nc1C [Q.337]
≥ 50%: [1] | [2] | [3] | [4]

CCN(C)/C=N/c1cc(Br)c(OC2CCC(=C(Cl)Cl)CC2)nc1C (stereo not drawn) [Q.071]
≥ 50%: [1] | [2] | [3] | [4]

CCN(C)/C=N/c1cc(I)c(OC(C)c2cc(F)cc(F)c2)nc1C (stereo not drawn) [Q.178]
≥ 50%: [1] | [2] | [3] | [4]

CCN(C)/C=N/c1cc(C(F)F)c(OC(C)c2cc(F)cc(F)c2)nc1C (stereo not drawn) [Q.215]
≥ 50%: [1] | [2] | [3] | [4]

CCN(C)/C=N/c1cc(Br)c(OCC#Cc2ccccc2)nc1C [Q.016]
≥ 50%: [1] | [2] | [3] | [4]

CCN(C)/C=N/c1cc(Br)c(OC2CCc3ccc(C(C)=O)cc3C2)nc1C (stereo not drawn) [Q.033]
≥ 50%: [1] | [2] | [3] | [4]

CCN(C)/C=N/c1cc(Br)c(OCc2cccc(C)c2C)nc1C [Q.175]
≥ 50%: [1] | [2] | [3] | [4]
